Test results reported in the NIST ThermoML archive (doi:10.1016/j.tca.2013.05.007).

How the values were obtained:
[1] = molar heat capacity at constant pressure; conditions: 101.33 kPa, Liquid, Large sample (1 g) DSC
[2] = DTA

CCCC[n+]1cccc(C)c1.O=S(=O)([O-])C(F)(F)F [1-butyl-3-methylpyridinium trifluoromethanesulfonate]
Conditions | Normal melting temperature [°C] | molar heat capacity at constant pressure [J/K/mol]
[1], 323.15 K | – | 461
[1], 324.15 K | – | 462
[1], 325.15 K | – | 464
[1], 326.15 K | – | 465
[1], 327.15 K | – | 467
[1], 328.15 K | – | 468
[1], 329.15 K | – | 469
[1], 330.15 K | – | 471
[1], 331.15 K | – | 472
[1], 332.15 K | – | 473
[1], 333.15 K | – | 474
[1], 334.15 K | – | 475
[1], 335.15 K | – | 476
[1], 336.15 K | – | 478
[1], 337.15 K | – | 479
[1], 338.15 K | – | 480
[1], 339.15 K | – | 481
[1], 340.15 K | – | 482
[1], 341.15 K | – | 483
[1], 342.15 K | – | 485
[1], 343.15 K | – | 486
[1], 344.15 K | – | 487
[1], 345.15 K | – | 488
[1], 346.15 K | – | 489
[1], 347.15 K | – | 490
[1], 348.15 K | – | 491
[1], 349.15 K | – | 492
[1], 350.15 K | – | 493
[1], 351.15 K | – | 494
[1], 352.15 K | – | 495
[1], 353.15 K | – | 496
[2], Crystal 1 | 30 | –
[2], Metastable crystal | -6 | –

Conditions | Glass transition temperature [°C]
[2] | -76

CCC[n+]1cccc(C)c1.O=S(=O)([N-]S(=O)(=O)C(F)(F)F)C(F)(F)F
[1]
Conditions | molar heat capacity at constant pressure [J/K/mol]
293.15 K | 510
294.15 K | 511
295.15 K | 513
296.15 K | 514
297.15 K | 516
298.15 K | 517
299.15 K | 518
300.15 K | 519
301.15 K | 520
302.15 K | 521
303.15 K | 522
304.15 K | 523
305.15 K | 524
306.15 K | 525
307.15 K | 526
308.15 K | 527
309.15 K | 528
310.15 K | 529
311.15 K | 530
312.15 K | 531
313.15 K | 532
314.15 K | 532
315.15 K | 533
316.15 K | 534
317.15 K | 535
318.15 K | 536
319.15 K | 536
320.15 K | 537
321.15 K | 538
322.15 K | 539
323.15 K | 540
324.15 K | 541
325.15 K | 541
326.15 K | 542
327.15 K | 543
328.15 K | 544
329.15 K | 545
330.15 K | 546
331.15 K | 547
332.15 K | 548
333.15 K | 549

Conditions | Glass transition temperature [°C]
[2] | -88

CCCC[n+]1cccc(C)c1.O=S(=O)([N-]S(=O)(=O)C(F)(F)F)C(F)(F)F
[1]
Conditions | molar heat capacity at constant pressure [J/K/mol]
293.15 K | 541
294.15 K | 542
295.15 K | 544
296.15 K | 546
297.15 K | 547
298.15 K | 548
299.15 K | 550
300.15 K | 551
301.15 K | 552
302.15 K | 553
303.15 K | 554
304.15 K | 555
305.15 K | 556
306.15 K | 557
307.15 K | 558
308.15 K | 559
309.15 K | 560
310.15 K | 561
311.15 K | 562
312.15 K | 563
313.15 K | 564
314.15 K | 564
315.15 K | 565
316.15 K | 566
317.15 K | 567
318.15 K | 568
319.15 K | 569
320.15 K | 570
321.15 K | 570
322.15 K | 571
323.15 K | 572
324.15 K | 573
325.15 K | 574
326.15 K | 575
327.15 K | 576
328.15 K | 577
329.15 K | 578
330.15 K | 579
331.15 K | 580
332.15 K | 581
333.15 K | 582

Conditions | Glass transition temperature [°C]
[2] | -85

CC[n+]1cccc(C)c1.O=S(=O)([N-]S(=O)(=O)C(F)(F)F)C(F)(F)F
Conditions | Normal melting temperature [°C] | molar heat capacity at constant pressure [J/K/mol]
[1], 293.15 K | – | 484
[1], 294.15 K | – | 486
[1], 295.15 K | – | 487
[1], 296.15 K | – | 489
[1], 297.15 K | – | 490
[1], 298.15 K | – | 491
[1], 299.15 K | – | 493
[1], 300.15 K | – | 494
[1], 301.15 K | – | 495
[1], 302.15 K | – | 496
[1], 303.15 K | – | 497
[1], 304.15 K | – | 498
[1], 305.15 K | – | 499
[1], 306.15 K | – | 500
[1], 307.15 K | – | 501
[1], 308.15 K | – | 502
[1], 309.15 K | – | 502
[1], 310.15 K | – | 503
[1], 311.15 K | – | 504
[1], 312.15 K | – | 505
[1], 313.15 K | – | 506
[1], 314.15 K | – | 507
[1], 315.15 K | – | 507
[1], 316.15 K | – | 508
[1], 317.15 K | – | 509
[1], 318.15 K | – | 510
[1], 319.15 K | – | 510
[1], 320.15 K | – | 511
[1], 321.15 K | – | 512
[1], 322.15 K | – | 513
[1], 323.15 K | – | 514
[1], 324.15 K | – | 514
[1], 325.15 K | – | 515
[1], 326.15 K | – | 516
[1], 327.15 K | – | 517
[1], 328.15 K | – | 518
[1], 329.15 K | – | 519
[1], 330.15 K | – | 519
[1], 331.15 K | – | 520
[1], 332.15 K | – | 521
[1], 333.15 K | – | 522
[2], Crystal | -1 | –

CCCCn1cc[n+](C)c1.O=S(=O)([O-])C(F)(F)F [1-butyl-3-methylimidazolium trifluoromethanesulfonate]
Conditions | Normal melting temperature [°C] | molar heat capacity at constant pressure [J/K/mol]
[1], 323.15 K | – | 456
[1], 324.15 K | – | 457
[1], 325.15 K | – | 458
[1], 326.15 K | – | 459
[1], 327.15 K | – | 460
[1], 328.15 K | – | 461
[1], 329.15 K | – | 462
[1], 330.15 K | – | 463
[1], 331.15 K | – | 464
[1], 332.15 K | – | 465
[1], 333.15 K | – | 466
[1], 334.15 K | – | 467
[1], 335.15 K | – | 467
[1], 336.15 K | – | 468
[1], 337.15 K | – | 469
[1], 338.15 K | – | 470
[1], 339.15 K | – | 471
[1], 340.15 K | – | 472
[1], 341.15 K | – | 473
[1], 342.15 K | – | 474
[1], 343.15 K | – | 475
[1], 344.15 K | – | 476
[1], 345.15 K | – | 477
[1], 346.15 K | – | 477
[1], 347.15 K | – | 478
[1], 348.15 K | – | 479
[1], 349.15 K | – | 480
[1], 350.15 K | – | 481
[1], 351.15 K | – | 481
[1], 352.15 K | – | 482
[1], 353.15 K | – | 483
[2], Crystal | 12 | –

CCCCn1cc[n+](C)c1.N#CN=C=[N-] [1-butyl-3-methylimidazolium dicyanamide]
Conditions | Normal melting temperature [°C] | Triple point temperature [K] | molar heat capacity at constant pressure [J/K/mol]
[1], 293.15 K | – | – | 372
[1], 294.15 K | – | – | 373
[1], 295.15 K | – | – | 374
[1], 296.15 K | – | – | 375
[1], 297.15 K | – | – | 375
[1], 298.15 K | – | – | 376
[1], 299.15 K | – | – | 377
[1], 300.15 K | – | – | 377
[1], 301.15 K | – | – | 378
[1], 302.15 K | – | – | 378
[1], 303.15 K | – | – | 379
[1], 304.15 K | – | – | 379
[1], 305.15 K | – | – | 380
[1], 306.15 K | – | – | 380
[1], 307.15 K | – | – | 381
[1], 308.15 K | – | – | 381
[1], 309.15 K | – | – | 382
[1], 310.15 K | – | – | 382
[1], 311.15 K | – | – | 382
[1], 312.15 K | – | – | 383
[1], 313.15 K | – | – | 383
[1], 314.15 K | – | – | 384
[1], 315.15 K | – | – | 384
[1], 316.15 K | – | – | 384
[1], 317.15 K | – | – | 385
[1], 318.15 K | – | – | 385
[1], 319.15 K | – | – | 385
[1], 320.15 K | – | – | 386
[1], 321.15 K | – | – | 386
[1], 322.15 K | – | – | 387
[1], 323.15 K | – | – | 387
[1], 324.15 K | – | – | 388
[1], 325.15 K | – | – | 388
[1], 326.15 K | – | – | 388
[1], 327.15 K | – | – | 389
[1], 328.15 K | – | – | 389
[1], 329.15 K | – | – | 390
[1], 330.15 K | – | – | 390
[1], 331.15 K | – | – | 391
[1], 332.15 K | – | – | 391
[1], 333.15 K | – | – | 392
[2], Crystal 1 | -6 | – | –
[2], Crystal 2 | – | 225 | –

Conditions | Glass transition temperature [°C]
[2] | -92
